In patent US6339146B1, “Cycloalkylated beta-glucoside” (Nikon Shokuhin Kako Co., Ltd., priority 1999, dated 2002):

How the values were obtained:
[1] = target: β-glucosidase derived from Aspergillus niger (Aspergillus niger, UniProt A2RAL4); assay: β-Glucosidase inhibition test (pNP-β-Glc hydrolysis); assay type: biochemical; conditions: for Activity ratio (pNP-β-glucosidase activity): cycloalkyl glucoside 1 mM (table title), no inhibitor = 1.00, pH 5.0, 40° C., 10 minutes
Description: (§1) β-Glucosidase inhibition test was performed as follows. 10 mM p-nitrophenyl-β-glucoside (100 μl, abbreviated as pNP-β-Glc hereinafter), 1 M sodium acetate buffer (pH 5.0, 50 μl), pure water, and 100 mM inhibitor (10 μl) were taken into a short test tube so that the mixture should have a total volume of […], and preincubated at 40° C. for 5 minutes. After the incubation, the obtained mixture was added with 50 μl of enzyme solution diluted to a suitable concentration, and allowed to react at 40° C. After 10 minutes, the enzyme was inactivated by adding 500 μl of 1 M sodium carbonate to the obtained reaction mixture, and the absorbance at 405 nm was measured and used for calculation of the amount of free p-nitrophenol. As the inhibitor, cyclopropylmethyl-β-glucoside (CPAM-β-Glc), cyclopentyl-β-glucoside (CPE-β-Glc), and cyclopentylmethyl-β-glucoside (CPEM-β-Glc) all prepared by the methods of Examples 1 and 2were used. As the β-glucosidase, chromatographically purified preparations derived from Aspergillus niger, Trichoderma viride, and Almond (all from SIGMA) were used.

[2] = system: β-glucosidase derived from Almond; assay: as above; assay type: biochemical; conditions: for Activity ratio (pNP-β-glucosidase activity): Almond enzyme, cycloalkyl glucoside 1 mM (table title), no inhibitor = 1.00, pH 5.0, 40° C., 10 minutes
Description: as §1

[3] = target: β-glucosidase derived from Trichoderma viride (Trichoderma viride, UniProt Q6UJY0); assay: as above; assay type: biochemical; conditions: T. viride enzyme
Description: as §1

[4] = system: rose petal crude enzyme solution (pNP-β-Glc activity); assay: Inhibition test for rose crude enzyme (pNP-β-Glc activity); assay type: biochemical, Rosa gybrida CV. Wendy
Description: as §1
Only petals (about 70 g) were collected from about ten marketed roses (variety; Rosa gybrida CV. Wendy), added with acetone (500 ml) cooled to −20° C., and pulverized by a homogenizer while cooled with dry ice. The obtained pulverized mixture was filtered through a Buchner funnel put with a No. 2 filter paper sheet, and sufficiently washed with acetone at −20° C. The obtained filtrate was dried in a desiccator under reduced pressure (room temperature, 3 hours) to obtain 6 g of crude enzyme powder. This powder was added to 100 mM sodium phosphate buffer (pH 7.0, 120 ml) and stirred at 4° C. for 3 hours, and the insoluble matter was removed by centrifugation. The filtrate was subjected to ultrafiltration utilizing an ultrafiltration membrane PM-10 (Amicon) to finally afford 15 ml of crude enzyme solution.
In the same manner as in Example 3, the inhibition activity of the CPEM-β-Glc obtained in Example 2 for the pNP-β-Glc activity of the above crude enzyme solution was measured. […]

[5] = system: chrysanthemum cut flowers; assay: Aromatic substance formation inhibition effect in cut flowers (organoleptic test); assay type: in vivo; conditions: 0.13% (w/v, 5 mM) aqueous solution
Description: (§2) A 0.13% (w/v, 5 mM) aqueous solution of the CPEM-β-Glc obtained in Example 2 was prepared. The obtained aqueous solution (300 ml) was introduced into an Erlenmeyer flask, and lily, chrysanthemum, and gypsophila were put into it one for each. On the other hand, as control, the flowers were similarly put into water without the CPEM-β-Glc. After 1, 2 and 4 days, organoleptic test was performed by ten expert panelists as for the aroma emitted from these cut flowers.

gypsophila cut flowers = assay: as above; assay type: in vivo; conditions: 0.13% (w/v, 5 mM) aqueous solution
Description: as §2

lily cut flowers = assay: as above; assay type: in vivo; conditions: 0.13% (w/v, 5 mM) aqueous solution
Description: as §2

[6] = cycloalkyl glucoside 1 mM (table title), no inhibitor = 1.00, pH 5.0, 40° C., 10 minutes

Row | Compound | Activity ratio (pNP-β-glucosidase activity) ([1]; A. niger enzyme) | Activity ratio (pNP-β-glucosidase activity) [2] | Activity ratio (pNP-β-glucosidase activity) [3, 6] | Inhibition activity for pNP-β-Glc activity of rose crude enzyme ([4]; at 3 mM) | Inhibition activity for pNP-β-Glc activity of rose crude enzyme ([4]; at 4 mM) | Inhibition activity for pNP-β-Glc activity of rose crude enzyme ([4]; at 5 mM) | Freshness of the cut flowers ([5]; added versus not added) | Aroma emitted from cut flowers (organoleptic test, ten expert panelists) ([5]; after one day, versus water) | Freshness of the cut flowers (gypsophila cut flowers; added versus not added) | Aroma emitted from cut flowers (organoleptic test, ten expert panelists) (gypsophila cut flowers; after one day, versus water) | Freshness of the cut flowers (lily cut flowers; added versus not added) | Aroma emitted from cut flowers (organoleptic test, ten expert panelists) (lily cut flowers; after one day, versus water) | activity at 1000 µM ([1]; 10 min, pH 5, read-out: Activity ratio (pNP-β-glucosidase activity)) | Inhibition of β-glucosidase (in words) ([1]; A. niger enzyme, inhibitor concentration of 1.25 mM) | Inhibition of β-glucosidase (in words) ([2]; almond enzyme, inhibitor concentration of 1.25 mM) | Difference in 50% inhibition concentration, almond versus A. niger and T. viride β-glucosidases ([2]; ratio of 50% inhibition concentrations) | IC50 ([2]; β-glucosidase derived from almond, concentration varied from 0 to 5 mM, read-out: 50% inhibition concentration) | activity at 1000 µM ([3]; 10 min, cycloalkyl glucoside 1 mM (table title), no inhibitor = 1.00, pH 5.0, 40° C., 10 minutes, read-out: Activity ratio (pNP-β-glucosidase activity)) | Inhibition of β-glucosidase (in words) ([3]; inhibitor concentration of 1.25 mM)
1 | OC[C@H]1O[C@@H](OCC2CC2)[C@H](O)[C@@H](O)[C@@H]1O [CPAM-β-Glc, cyclopropylmethyl-β-glucoside] | 0.94 | 0.86 | 1.01 | – | – | – | – | – | – | – | – | – | – | – | – | – | – | – | –
2 | OC[C@H]1O[C@@H](OC2CCCC2)[C@H](O)[C@@H](O)[C@@H]1O [CPE-β-Glc, cyclopentyl-β-glucoside] | 0.92 | 0.90 | 1.06 | – | – | – | – | – | – | – | – | – | – | – | – | – | – | – | –
3 | OCC1OC(OCC2CCCC2)C(O)C(O)C1O (stereo not drawn) [CPEM-β-Glc, cyclopentylmethyl-β-glucoside] | – | 0.27 | – | about 50% | about 70% | about 90% | No difference | distinctly reduced | No difference | distinctly reduced | No difference | distinctly reduced | 99% | relatively weak inhibition | strongly inhibited | about 70 times | 170 µM | 105% | no inhibition
